Test results: ChEMBL document CHEMBL1255478, “Characterization of CSP-1, a novel extended-spectrum beta-lactamase produced by a clinical isolate of Capnocytophaga sputigena” (2010)
In brackets after ≈: the same amount, converted by molar mass.

Key:
Type in all cases: functional
Escherichia coli [1] = assay: Antimicrobial activity against Escherichia coli TOP10(pNOR-1) expressing CSP-1 gene after 2 days by agar dilution method; conditions: 48 h
Capnocytophaga sputigena [2] = assay: Antimicrobial activity against Capnocytophaga sputigena isolate NOR after 2 days by agar dilution method; conditions: 48 h
Escherichia coli [3] = assay: Antimicrobial activity against Escherichia coli TOP10 after 2 days by agar dilution method; conditions: TOP10, 48 h
Capnocytophaga sputigena [4] = assay: Antimicrobial activity against Capnocytophaga sputigena CRBIP 17.39 after 2 days by agar dilution method; conditions: CRBIP 17.39, 48 h
Capnocytophaga sputigena [5] = assay: Antimicrobial activity against Capnocytophaga sputigena CIP 104301T after 2 days by agar dilution method; conditions: 48 h

Compound | MIC (Escherichia coli [1]) [µg/mL] | MIC (Capnocytophaga sputigena [2]) [µg/mL] | MIC (Escherichia coli [3]) [µg/mL] | MIC (Capnocytophaga sputigena [4]) [µg/mL] | MIC (Capnocytophaga sputigena [5]) [µg/mL]
CO/N=C(\C(=O)N[C@@H]1C(=O)N2C(C(=O)O)=C(COC(N)=O)CS[C@H]12)c1ccco1 [CEFUROXIME] | 256 (≈ 603 µM) | 64 (≈ 151 µM) | 0.5 (≈ 1.18 µM) | 0.5 (≈ 1.18 µM) | 0.5 (≈ 1.18 µM)
C[C@H]1[C@H](NC(=O)/C(=N\OC(C)(C)C(=O)O)c2csc(N)n2)C(=O)N1S(=O)(=O)O [AZTREONAM] | 16 (≈ 36.7 µM) | 0.125 (≈ 0.287 µM) | – | 0.125 (≈ 0.287 µM) | 0.125 (≈ 0.287 µM)
CO/N=C(\C(=O)N[C@@H]1C(=O)N2C(C(=O)O)=C(COC(C)=O)CS[C@H]12)c1csc(N)n1 [CEFOTAXIME] | 8 (≈ 17.6 µM) | 0.25 (≈ 0.549 µM) | < 0.06 | < 0.06 | < 0.06
CC(=O)OCC1=C(C(=O)O)N2C(=O)[C@@H](NC(=O)Cc3cccs3)[C@H]2SC1 [CEPHALOTHIN] | > 512 | 64 (≈ 161 µM) | 4 (≈ 10.1 µM) | 0.125 (≈ 0.315 µM) | 0.25 (≈ 0.631 µM)
CO[C@@]1(NC(=O)Cc2cccs2)C(=O)N2C(C(=O)O)=C(COC(N)=O)CS[C@@H]21 [CEFOXITIN] | 2 (≈ 4.68 µM) | 0.5 (≈ 1.17 µM) | 2 (≈ 4.68 µM) | 0.5 (≈ 1.17 µM) | 0.5 (≈ 1.17 µM)
CC1(C)S[C@@H]2[C@H](NC(=O)[C@H](N)c3ccc(O)cc3)C(=O)N2[C@H]1C(=O)O [AMOXICILLIN] | > 512 | 256 (≈ 701 µM) | 2 (≈ 5.47 µM) | 0.25 (≈ 0.684 µM) | 0.25 (≈ 0.684 µM)
CO/N=C(\C(=O)N[C@@H]1C(=O)N2C(C(=O)[O-])=C(C[N+]3(C)CCCC3)CS[C@H]12)c1csc(N)n1 [CEFEPIME] | 4 (≈ 8.32 µM) | 0.125 (≈ 0.26 µM) | – | < 0.06 | < 0.06
CCN1CCN(C(=O)N[C@@H](C(=O)N[C@@H]2C(=O)N3[C@@H]2SC(C)(C)[C@@H]3C(=O)O)c2ccccc2)C(=O)C1=O [PIPERACILLIN] | 16 (≈ 30.9 µM) | 0.5 (≈ 0.966 µM) | 1 (≈ 1.93 µM) | 0.25 (≈ 0.483 µM) | 0.25 (≈ 0.483 µM)
C[C@@H](O)[C@H]1C(=O)N2C(C(=O)O)=C(SCCNC=N)C[C@H]12 [IMIPENEM ANHYDROUS] | 0.06 (≈ 0.2 µM) | 0.06 (≈ 0.2 µM) | – | 0.06 (≈ 0.2 µM) | 0.06 (≈ 0.2 µM)
CC1(C)S[C@@H]2[C@H](NC(=O)[C@H](C(=O)O)c3ccsc3)C(=O)N2[C@H]1C(=O)O [TICARCILLIN] | > 512 | 4 (≈ 10.4 µM) | 1 (≈ 2.6 µM) | 0.25 (≈ 0.65 µM) | 0.25 (≈ 0.65 µM)
CC(C)(O/N=C(\C(=O)N[C@@H]1C(=O)N2C(C(=O)[O-])=C(C[n+]3ccccc3)CS[C@H]12)c1csc(N)n1)C(=O)O [CEFTAZIDIME] | 0.5 (≈ 0.915 µM) | 4 (≈ 7.32 µM) | < 0.06 | < 0.06 | < 0.06
